Assay results published in paper PMC6197744, “Triazolo[4,5-d]pyrimidines as Validated General Control Nonderepressible 2 (GCN2) Protein Kinase Inhibitors Reduce Growth of Leukemia Cells” (Computational and Structural Biotechnology Journal, 2018).
Values after ≈ are worked out from the molar mass of the structure shown.

Key:
[1] = Permeability assay (PAMPA); type: in vitro ADME; details: pH 7.4, 25 °C, <10 low, >10 high permeability
Protocol: GCN2 compound permeability was determined by PAMPA and was performed by Pharmaron, Inc. (Beijing, China). All compounds and control stock solutions were prepared in DMSO at a concentration of 10 mM. Testosterone and methotrexate were used as control compounds. Compound stock solutions were diluted with PBS (pH 7.4) to a final concentration of 10 μM. A 1.8% solution (w/v) of lecithin in dodecane was prepared and sonicated to ensure a complete dissolution. 5 μL of the lecithin/dodecane mixture were pipetted into each acceptor plate well (top compartment). Immediately after the application of the artificial membrane (within 10 min), 300 μL of PBS (pH 7.4) solution were added to each well of the acceptor plate. 300 μL of drug-containing solutions were added to each well of the donor plate (bottom compartment) in triplicate. The plate lid was replaced and incubated at 25 °C, 60 rpm for 16 h. After incubation, aliquots of 50 μL from each well of acceptor and donor plate were transferred into a 96-well plate and 200 μL of methanol (containing IS: 100 nM Alprazolam, 200 nM Labetalol and 2 μM Ketoprofen) was added to each well. The plate was vortexed at 750 rpm for 100 s. Samples were centrifuged at 3220g for 20 min. The compound concentrations were determined by LC/MS/MS. The effective permeability (Pe), in units of centimeter per second were calculated using the following equation: logPe=logC×−ln1−drugacceptor/drugequilibrium

[2] = Kinetic solubility assay; type: physicochemical; details: for solubility (in words): PBS pH 7.4; for solubility at 2 h: aqueous buffer, kinetic from dmso stock, PBS pH 7.4, 25 °C
Protocol: Compound solubility was determined in PBS at pH 7.4 by Pharmaron, Inc. (Beijing, China). Briefly, all compounds and control solutions were prepared in DMSO at concentrations of 10 mM. Diclofenac was used as a positive control. 10 μL or 30 μL of each compound was added into a 96-well plate, followed by adding 990 μL or 970 μL, respectively, of PBS at pH 7.4. A stir stick was added to each well and wells were sealed using a molded PTDE/SIL 96-Well Plate Cover. […] After incubation the samples were transferred into the filter plate and filtered by Vacuum Manifold. The filtered samples were diluted with methanol to obtain 3 μM standards (STD). The samples were analyzed by LC-MS/MS against a standard of known concentration in DMSO. The solubility values of duplicate test compounds were calculated in Microsoft Excel using the following equation, where DF means dilution factor: Sample=AREASample×INJVOLStd×DFSample×STD/AREAStd×INJVOLSample

[3] = molecular target: T1, PKR (Homo sapiens, UniProt P19525); assay: radiometric HotSpot kinase assay; type: biochemical; details: for inhibition at 10 µM: 10 μM compound, 10 μM ATP, read-out: % Enzyme inhibition at 10 μM, PKR; for IC50: means of two independent experiments
T1 construct: purchased Reaction Biology Corporation (Malvern, PA)
Protocol: (§1) Compounds 1–9 were screened in a radiometric […] kinase assay against human GCN2 and other kinases involved in the UPR and ISR pathways (Table 1). […] The most soluble of the potent tool compounds (1 and 2) were selected for in vitro cell-based assays where the phosphorylation of eIF2α (p-eIF2α) was used as a readout for GCN2 inhibition.
(§2) In vitro compound profiling for recombinant GCN2, PERK, HRI, PKR, or IRE1 kinases were performed at Reaction Biology Corporation (Malvern, PA) using the HotSpot kinase assay. Briefly, all compounds provided for testing were dissolved in 10 mM DMSO stock solutions. Serial dilutions were conducted by epMotion 5070 in DMSO. Specific kinase/substrate mixtures and required cofactors were prepared in reaction buffer (20 mM Hepes (pH 7.5), 10 mM MgCl2, 1 mM EGTA, 0.02% Brij35, 0.02 mg/ml BSA, 0.1 mM Na3VO4, 2 mM DTT, 1% DMSO). Compounds were added to the kinase reaction mixture by Acoustic technology (Echo550; nanoliter range) and incubated for 20 min at room temperature. The kinase reaction was initiated by adding ^33P ATP to a final concentration of 10 μM for single point kinase activity reading or to the ATP Km of GCN2 for IC50 readings. The reaction was incubated or 2 h at room temperature and kinase activity was detected by filter-binding method. IC50 values and curves were generated with GraphPad Prism 7 (GraphPad software).

[4] = molecular target: T2, HRI (Homo sapiens, UniProt Q9BQI3); assay: radiometric HotSpot kinase assay; type: biochemical; details: 10 μM compound, 10 μM ATP; read-out: % Enzyme inhibition at 10 μM, HRI
T2 construct: purchased Reaction Biology Corporation (Malvern, PA)
Protocol: as §1, §2

[5] = molecular target: T3, IRE1 (Homo sapiens, UniProt O75460); assay: radiometric HotSpot kinase assay; type: biochemical; details: 10 μM compound, 10 μM ATP; read-out: % Enzyme inhibition at 10 μM, IRE1
T3 construct: purchased Reaction Biology Corporation (Malvern, PA)
Protocol: as §1, §2

[6] = tested on: 4E-BP mRNA; assay: qRT-PCR of 4E-BP mRNA in Drosophila S2 cells; type: cell-based; details: amino acid deprived, 10 μM, 6 h, vs DMSO control
Description: It is known that under normal nutrient conditions the cap-dependent translational inhibitor 4E-BP is not expressed. However stress such as nutrient deprivation is known to trigger the transcriptional induction of 4E-BP. It has recently been shown that GCN2 and its downstream transcription factor, ATF4, mediate 4E-BP induction under amino acid deprivation in Drosophila, S2 cells. To further investigate the downstream effects of 1 and 2 on the amino acid deprivation GCN2 − ATF4 − 4E-BP pathway, the levels of 4E-BP mRNA transcript were monitored. We performed qRT-PCR on Drosophila S2 cells.
Drosophila S2 cell lines were cultured at 25 °C in Schneider's medium (Life Technologies, 21,720,024) and supplemented with 1% penicillin-streptomycin (Life Technologies, 15,140,122). For amino acid deprivation experiments, Schneider's medium lacking amino acids (USBiological Life Sciences, S0100-03) was used. Cells were treated for 6 h with 10 μM inhibitor concatenation or DMSO.
Total RNA was extracted with TRIzol Reagent (Invitrogen, USA). For cDNA synthesis, 200 ng of RNA was transcribed using SuperScript First-Strand Synthesis Kit (Invitrogen, USA). PCR amplification was performed for 25 cycles using taq polymerase (Roche) according to manufacturer's protocol. […] Results were expressed as the relative expression of mRNA levels detected in control samples and were calculated using the ΔΔCt method.

T1 sequence (P19525 whole entry): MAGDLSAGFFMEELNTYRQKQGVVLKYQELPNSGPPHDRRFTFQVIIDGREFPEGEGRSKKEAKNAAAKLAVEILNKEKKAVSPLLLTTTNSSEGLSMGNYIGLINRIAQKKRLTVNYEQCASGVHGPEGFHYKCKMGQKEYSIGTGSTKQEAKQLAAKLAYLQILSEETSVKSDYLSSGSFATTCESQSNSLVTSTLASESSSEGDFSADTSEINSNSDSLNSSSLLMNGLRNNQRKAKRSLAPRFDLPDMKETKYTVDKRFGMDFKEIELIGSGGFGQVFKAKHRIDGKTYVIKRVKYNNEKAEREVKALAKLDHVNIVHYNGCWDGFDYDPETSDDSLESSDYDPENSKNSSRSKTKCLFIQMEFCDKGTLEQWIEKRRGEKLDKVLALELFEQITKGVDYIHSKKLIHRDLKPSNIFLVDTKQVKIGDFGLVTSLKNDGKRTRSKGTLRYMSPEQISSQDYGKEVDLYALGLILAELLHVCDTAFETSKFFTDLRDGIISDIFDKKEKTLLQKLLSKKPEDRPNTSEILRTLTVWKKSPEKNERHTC
T2 sequence (Q9BQI3 whole entry): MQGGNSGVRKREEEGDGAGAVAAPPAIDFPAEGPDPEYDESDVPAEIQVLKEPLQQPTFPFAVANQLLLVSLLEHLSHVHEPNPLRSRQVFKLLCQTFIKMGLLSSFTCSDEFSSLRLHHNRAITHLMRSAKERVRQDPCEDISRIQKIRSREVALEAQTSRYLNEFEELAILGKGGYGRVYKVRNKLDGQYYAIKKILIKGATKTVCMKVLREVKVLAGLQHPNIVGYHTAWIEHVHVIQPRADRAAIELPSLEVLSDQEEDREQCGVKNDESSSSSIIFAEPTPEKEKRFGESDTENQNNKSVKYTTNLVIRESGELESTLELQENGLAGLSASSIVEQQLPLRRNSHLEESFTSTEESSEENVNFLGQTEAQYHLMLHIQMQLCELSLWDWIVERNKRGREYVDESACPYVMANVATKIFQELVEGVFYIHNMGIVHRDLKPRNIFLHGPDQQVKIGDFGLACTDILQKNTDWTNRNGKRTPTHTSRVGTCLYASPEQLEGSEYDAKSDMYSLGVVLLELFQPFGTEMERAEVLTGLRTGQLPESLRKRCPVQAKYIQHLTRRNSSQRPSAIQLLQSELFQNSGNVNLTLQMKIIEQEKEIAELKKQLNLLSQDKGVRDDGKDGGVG
T3 sequence (O75460 19-977): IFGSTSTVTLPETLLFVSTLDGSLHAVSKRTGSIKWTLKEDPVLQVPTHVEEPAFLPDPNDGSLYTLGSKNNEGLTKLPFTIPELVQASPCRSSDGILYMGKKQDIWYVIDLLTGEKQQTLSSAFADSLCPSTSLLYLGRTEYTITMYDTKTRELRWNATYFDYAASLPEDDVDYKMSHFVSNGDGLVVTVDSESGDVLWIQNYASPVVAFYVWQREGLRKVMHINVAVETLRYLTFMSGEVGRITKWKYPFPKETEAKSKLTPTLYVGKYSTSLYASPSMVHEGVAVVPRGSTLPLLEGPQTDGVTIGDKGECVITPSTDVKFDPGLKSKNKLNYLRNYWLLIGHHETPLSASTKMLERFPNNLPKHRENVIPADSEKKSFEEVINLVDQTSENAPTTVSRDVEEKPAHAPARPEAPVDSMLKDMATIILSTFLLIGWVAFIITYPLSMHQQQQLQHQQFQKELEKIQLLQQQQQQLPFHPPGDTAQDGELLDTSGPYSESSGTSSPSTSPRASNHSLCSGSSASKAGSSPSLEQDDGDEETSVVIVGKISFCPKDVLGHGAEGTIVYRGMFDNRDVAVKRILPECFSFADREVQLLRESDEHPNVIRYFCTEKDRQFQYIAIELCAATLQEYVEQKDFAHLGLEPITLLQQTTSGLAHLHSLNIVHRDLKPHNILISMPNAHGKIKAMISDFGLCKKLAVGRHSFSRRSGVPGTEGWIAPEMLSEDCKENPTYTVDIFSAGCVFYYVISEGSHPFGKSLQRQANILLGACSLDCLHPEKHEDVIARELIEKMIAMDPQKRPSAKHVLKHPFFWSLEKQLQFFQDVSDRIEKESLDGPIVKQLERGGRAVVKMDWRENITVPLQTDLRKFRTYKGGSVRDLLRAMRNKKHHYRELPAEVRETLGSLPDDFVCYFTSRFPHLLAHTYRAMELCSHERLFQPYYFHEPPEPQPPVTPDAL

| Compound | Papp at 16 h, 10 μM [1] | solubility (in words) [2] | solubility at 2 h [2] | inhibition at 10 µM [3] | IC50 [3] | inhibition at 10 µM [4] | inhibition at 10 µM [5] | relative 4E-BP mRNA levels [6] |
| --- | --- | --- | --- | --- | --- | --- | --- | --- |
| CCn1cc(Nc2ncc3nnn(-c4ccc(C(=O)OC)cc4)c3n2)cn1 [Compound 1, Methyl 4-(5-((1-ethyl-1H-pyrazol-4-yl)amino)-3H-[1,2,3]triazolo[4,5-d]pyrimidin-3-yl)benzoate] | 16 ×10⁻⁶ cm/s | poor | 0.65 µM (≈ 0.237 µg/mL) | 93% | 119 nM | 14% | 37% | decreased |
| CCOc1ccc(-n2nnc3cnc(Nc4cnn(CC)c4)nc32)cc1 [Compound 2, 3-(4-Ethoxyphenyl)-N-(1-ethyl-1H-pyrazol-4-yl)-3H-[1,2,3]triazolo[4,5-d]pyrimidin-5-amine] | 15.1 ×10⁻⁶ cm/s | poor | 0.31 µM (≈ 0.109 µg/mL) | 99% | 39.9 nM | < 10% | 20% | decreased |
